Results as given in ChEMBL document CHEMBL3286108, “Novel arylsulfonamide derivatives with 5-HT₆/5-HT₇ receptor antagonism targeting behavioral and psychological symptoms of dementia” (J Med Chem, 2014).
One block for each compound: values may come before it. Active and inactive are the calls of the source. No cut-off for these calls is given here.

Tests used:
[1] = molecular target: T1, 5-hydroxytryptamine receptor 6 (Homo sapiens, UniProt P50406); assay: Antagonist activity at human recombinant 5-HT6 receptor expressed in CHO-K1 cells assessed as inhibition of serotonin-induced response treated 15 to 30 mins before agonist challenge by luminescence analysis; format: cell-based
[2] = molecular target: T2, Muscarinic acetylcholine receptor M1 (Homo sapiens) (UniProt P11229); assay: Displacement of [3H]pirenzepine from human recombinant M1 receptor expressed in CHO cells at 1 uM; format: cell-based
T2 sequence (whole entry): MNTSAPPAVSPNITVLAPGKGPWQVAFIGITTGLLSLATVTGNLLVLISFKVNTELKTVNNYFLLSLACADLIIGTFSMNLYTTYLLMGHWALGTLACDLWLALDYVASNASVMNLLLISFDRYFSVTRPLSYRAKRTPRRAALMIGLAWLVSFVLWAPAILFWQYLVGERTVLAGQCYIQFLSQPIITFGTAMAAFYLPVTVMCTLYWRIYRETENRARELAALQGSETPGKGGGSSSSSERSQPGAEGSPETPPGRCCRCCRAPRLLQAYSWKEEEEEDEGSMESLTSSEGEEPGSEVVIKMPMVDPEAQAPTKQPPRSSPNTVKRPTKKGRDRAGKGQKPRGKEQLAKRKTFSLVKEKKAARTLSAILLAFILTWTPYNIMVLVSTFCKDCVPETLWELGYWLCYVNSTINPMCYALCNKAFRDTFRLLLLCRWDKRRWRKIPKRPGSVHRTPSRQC

[3] = molecular target: T3, 5-hydroxytryptamine receptor 7 (Homo sapiens, UniProt P34969); assay: Agonist activity at human 5-HT7 receptor expressed in CHO-K1 cells assessed as cAMP accumulation after 60 mins by TR-FRET immunoassay; format: functional, cell-based
[4] = molecular target: T4, D(2) dopamine receptor (Homo sapiens, UniProt P14416); assay: Agonist activity at human recombinant D2 receptor expressed in CHO-K1 cells by luminescence analysis; format: cell-based
[5] = molecular target: hERG (KCNH2) potassium channel (Homo sapiens, UniProt Q12809); assay: in vitro; details: CHO cells expressing human cloned ERG
[6] = molecular target: T3, 5-hydroxytryptamine receptor 7; assay: Antagonist activity at human 5-HT7 receptor expressed in CHO-K1 cells assessed as inhibition of serotonin-induced cAMP accumulation after 60 mins by TR-FRET immunoassay; format: functional, cell-based
[7] = molecular target: T4, D(2) dopamine receptor; assay: biochemical
[8] = molecular target: T1, 5-hydroxytryptamine receptor 6; assay: Agonist activity at human recombinant 5-HT6 receptor expressed in CHO-K1 cells by luminescence analysis; format: cell-based
[9] = molecular target: T3, 5-hydroxytryptamine receptor 7; assay: biochemical; format: cell-based, CHO-K1
[10] = molecular target: T1, 5-hydroxytryptamine receptor 6; assay: biochemical
[11] = molecular target: T5, 5-hydroxytryptamine receptor 2A (Homo sapiens, UniProt P28223); assay: Agonist activity at human recombinant 5-HT2A receptor expressed in CHO-K1 cells by luminescence analysis; format: cell-based
[12] = molecular target: T5, 5-hydroxytryptamine receptor 2A; assay: biochemical; format: cell-based, CHO-K1
[13] = molecular target: T5, 5-hydroxytryptamine receptor 2A; assay: Antagonist activity at human recombinant 5-HT2A receptor expressed in CHO-K1 cells assessed as inhibition of alpha-methyl serotonin-induced response treated 15 to 30 mins before agonist challenge by luminescence analysis; format: cell-based
[14] = molecular target: 5-hydroxytryptamine receptor 2C (Homo sapiens, UniProt P28335); assay: biochemical
[15] = molecular target: Alpha-1A adrenergic receptor (Homo sapiens, UniProt P35348); assay: biochemical
[16] = molecular target: Alpha-1A adrenergic receptor (Homo sapiens) (UniProt P35348); assay: Antagonist activity at human recombinant alpha1A adrenoceptor assessed as inhibition of epinephrine-induced intracellular Ca2+ release; format: functional, cell-based
[17] = system: Rattus norvegicus; assay: Antipsychotic-like activity in po dosed Wistar rat assessed as inhibition of DOI-induced head twitches measured after 60 mins; format: functional; details: 1 h, read-out: MED
[18] = molecular target: Sodium-dependent serotonin transporter (Homo sapiens, UniProt P31645); assay: biochemical
[19] = molecular target: Muscarinic acetylcholine receptor M1 (Homo sapiens, UniProt P11229); assay: biochemical; format: cell-based, CHO
[20] = molecular target: T5, 5-hydroxytryptamine receptor 2A; assay: Antagonist activity at human recombinant 5-HT2A receptor assessed as inhibition of serotonin-induced inositol phosphate accumulation; format: functional
[21] = molecular target: T4, D(2) dopamine receptor; assay: biochemical; remark: listed apart in the source
[22] = molecular target: D(4) dopamine receptor (Homo sapiens, UniProt P21917); assay: Displacement of [3H]methylspiperone from human recombinant D4 receptor expressed in CHO cells; format: cell-based
[23] = molecular target: Muscarinic acetylcholine receptor M4 (Homo sapiens) (UniProt P08173); assay: Displacement of [3H]4-DAMP from human recombinant M4 receptor expressed in CHO cells at 1 uM; format: cell-based
[24] = system: Rattus norvegicus; assay: Toxicity in Wistar rat assessed as spontaneous locomotor activity up to 100 mg/kg, po measured after 15 mins; format: organism-based; design: dose 100 mg/kg, route oral; details: in vivo, 0.25 h
[25] = molecular target: Muscarinic acetylcholine receptor M5 (Homo sapiens, UniProt P08912); assay: Displacement of [3H]4-DAMP from human recombinant M5 receptor expressed in CHO cells; format: cell-based
[26] = system: Rattus norvegicus; assay: Induction of catalepsy in Wistar rat up to 100 mg/kg, po by bar test; format: organism-based; design: dose 100 mg/kg, route oral; details: in vivo
[27] = molecular target: Muscarinic acetylcholine receptor M2 (Homo sapiens) (UniProt P08172); assay: Displacement of [3H]AF-DX384 from human recombinant M2 receptor expressed in CHO cells at 1 uM; format: cell-based
[28] = molecular target: T6, Muscarinic acetylcholine receptor M3 (Homo sapiens, UniProt P20309); assay: biochemical
Target sequence in this assay (P20309 whole entry): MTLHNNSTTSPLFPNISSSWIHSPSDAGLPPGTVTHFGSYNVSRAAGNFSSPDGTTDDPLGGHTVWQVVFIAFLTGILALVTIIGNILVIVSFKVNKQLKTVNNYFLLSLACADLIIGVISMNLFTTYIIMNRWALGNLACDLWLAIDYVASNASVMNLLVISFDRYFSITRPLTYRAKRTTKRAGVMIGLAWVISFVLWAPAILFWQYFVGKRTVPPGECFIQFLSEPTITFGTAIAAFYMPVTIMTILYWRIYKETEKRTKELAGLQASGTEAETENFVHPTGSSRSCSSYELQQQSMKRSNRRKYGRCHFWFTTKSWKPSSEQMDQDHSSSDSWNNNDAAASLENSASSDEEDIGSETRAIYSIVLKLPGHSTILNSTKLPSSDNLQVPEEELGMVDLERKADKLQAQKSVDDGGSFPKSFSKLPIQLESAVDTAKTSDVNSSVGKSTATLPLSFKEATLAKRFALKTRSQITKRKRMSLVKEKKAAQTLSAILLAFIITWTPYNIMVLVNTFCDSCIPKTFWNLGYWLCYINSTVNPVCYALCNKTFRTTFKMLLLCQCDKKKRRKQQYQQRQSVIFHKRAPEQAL

[29] = molecular target: D(1A) dopamine receptor (Homo sapiens, UniProt P21728); assay: biochemical
[30] = molecular target: T1, 5-hydroxytryptamine receptor 6; assay: biochemical; remark: listed apart in the source
[31] = molecular target: Muscarinic acetylcholine receptor M2 (Homo sapiens, UniProt P08172); assay: biochemical
[32] = molecular target: Muscarinic acetylcholine receptor M5 (Homo sapiens) (UniProt P08912); details: CHO, 1 uM
[33] = molecular target: T6, Muscarinic acetylcholine receptor M3; details: CHO, 1 uM
Target sequence in this assay (P20309 whole entry, looked up): as the sequence (P20309 whole entry) above

[34] = molecular target: 5-hydroxytryptamine receptor 1A (Homo sapiens, UniProt P08908); assay: biochemical
[35] = molecular target: T1, 5-hydroxytryptamine receptor 6
[36] = molecular target: Histamine H1 receptor (Homo sapiens, UniProt P35367); assay: biochemical; format: cell-based, HEK293
[37] = molecular target: Muscarinic acetylcholine receptor M4 (Homo sapiens, UniProt P08173); assay: biochemical
[38] = molecular target: T5, 5-hydroxytryptamine receptor 2A; assay: biochemical
[39] = molecular target: Alpha-2C adrenergic receptor (Homo sapiens, UniProt P18825); assay: biochemical
[40] = system: Rattus norvegicus; assay: Antidepressant-like activity in Wistar rat assessed as decrease in immobility time at 0.3 to 3 mg/kg, po after 60 mins by forced swimming test; format: functional; details: dose mg/kg 0.3-3
[41] = molecular target: T3, 5-hydroxytryptamine receptor 7; assay: biochemical
[42] = molecular target: D(3) dopamine receptor (Homo sapiens, UniProt P35462); assay: Displacement of [3H]methylspiperone from human recombinant D3 receptor expressed in CHO cells; format: cell-based
[43] = system: Rattus norvegicus; assay: Antipsychotic-like activity in po dosed Wistar rat assessed as inhibition of MK-801-induced hyperlocomotion administered 45 mins prior to MK-801 challenge measured 60 mins post-drug administration; format: functional; details: read-out: MED

T4 sequence (P14416 whole entry): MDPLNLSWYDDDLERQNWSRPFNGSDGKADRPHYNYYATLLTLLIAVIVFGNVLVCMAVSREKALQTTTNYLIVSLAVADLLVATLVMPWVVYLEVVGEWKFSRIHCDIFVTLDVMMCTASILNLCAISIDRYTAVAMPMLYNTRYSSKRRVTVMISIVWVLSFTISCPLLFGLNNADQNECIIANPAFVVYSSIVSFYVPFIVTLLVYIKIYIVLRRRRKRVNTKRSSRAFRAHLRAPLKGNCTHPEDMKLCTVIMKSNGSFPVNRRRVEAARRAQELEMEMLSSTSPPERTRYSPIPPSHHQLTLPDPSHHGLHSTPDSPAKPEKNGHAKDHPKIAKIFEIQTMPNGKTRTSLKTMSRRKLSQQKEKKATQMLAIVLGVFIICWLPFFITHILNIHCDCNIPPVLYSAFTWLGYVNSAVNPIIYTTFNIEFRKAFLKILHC
hERG (KCNH2) potassium channel, sequence (Q12809 whole entry): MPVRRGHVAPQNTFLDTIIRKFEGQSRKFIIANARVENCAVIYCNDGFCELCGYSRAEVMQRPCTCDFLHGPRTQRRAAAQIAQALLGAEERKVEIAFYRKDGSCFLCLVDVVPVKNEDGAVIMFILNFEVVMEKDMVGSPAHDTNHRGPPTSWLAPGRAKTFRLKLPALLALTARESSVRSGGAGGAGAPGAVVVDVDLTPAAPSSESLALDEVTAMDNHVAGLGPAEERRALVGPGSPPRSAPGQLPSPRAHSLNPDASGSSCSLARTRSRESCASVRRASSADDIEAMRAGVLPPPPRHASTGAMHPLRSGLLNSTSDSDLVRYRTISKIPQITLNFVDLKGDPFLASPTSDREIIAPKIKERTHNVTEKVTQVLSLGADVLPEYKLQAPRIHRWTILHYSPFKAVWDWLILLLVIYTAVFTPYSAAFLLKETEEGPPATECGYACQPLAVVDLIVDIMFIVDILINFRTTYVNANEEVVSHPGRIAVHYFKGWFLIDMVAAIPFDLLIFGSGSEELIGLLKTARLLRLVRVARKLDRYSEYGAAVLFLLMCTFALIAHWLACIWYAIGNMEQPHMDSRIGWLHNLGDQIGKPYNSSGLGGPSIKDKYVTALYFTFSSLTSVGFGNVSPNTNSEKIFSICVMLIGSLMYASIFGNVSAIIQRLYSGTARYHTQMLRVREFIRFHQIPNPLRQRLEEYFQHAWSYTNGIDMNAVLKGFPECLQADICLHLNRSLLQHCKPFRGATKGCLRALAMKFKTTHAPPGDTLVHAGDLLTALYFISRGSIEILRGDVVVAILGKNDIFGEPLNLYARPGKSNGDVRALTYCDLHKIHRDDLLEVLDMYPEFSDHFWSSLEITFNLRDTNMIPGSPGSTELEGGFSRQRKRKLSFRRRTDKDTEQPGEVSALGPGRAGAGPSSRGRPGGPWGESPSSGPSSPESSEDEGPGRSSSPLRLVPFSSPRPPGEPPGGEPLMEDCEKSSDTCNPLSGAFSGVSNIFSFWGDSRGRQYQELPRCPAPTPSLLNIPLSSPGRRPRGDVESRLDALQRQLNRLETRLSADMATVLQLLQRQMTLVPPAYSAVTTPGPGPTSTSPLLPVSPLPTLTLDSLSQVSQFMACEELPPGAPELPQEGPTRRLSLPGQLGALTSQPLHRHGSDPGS
T3 sequence (P34969 whole entry): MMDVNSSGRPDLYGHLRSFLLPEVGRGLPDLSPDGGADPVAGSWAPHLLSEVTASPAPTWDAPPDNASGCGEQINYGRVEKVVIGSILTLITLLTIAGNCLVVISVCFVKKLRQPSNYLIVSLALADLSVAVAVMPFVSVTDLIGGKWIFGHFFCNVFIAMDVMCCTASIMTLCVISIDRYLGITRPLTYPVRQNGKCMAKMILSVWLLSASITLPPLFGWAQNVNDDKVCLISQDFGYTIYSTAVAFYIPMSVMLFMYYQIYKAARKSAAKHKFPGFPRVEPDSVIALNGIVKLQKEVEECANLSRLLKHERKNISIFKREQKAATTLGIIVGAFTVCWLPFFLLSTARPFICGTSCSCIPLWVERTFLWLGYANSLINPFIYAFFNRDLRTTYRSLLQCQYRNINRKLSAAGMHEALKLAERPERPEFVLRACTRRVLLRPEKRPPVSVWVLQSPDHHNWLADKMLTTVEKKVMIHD
T1 sequence (P50406 whole entry): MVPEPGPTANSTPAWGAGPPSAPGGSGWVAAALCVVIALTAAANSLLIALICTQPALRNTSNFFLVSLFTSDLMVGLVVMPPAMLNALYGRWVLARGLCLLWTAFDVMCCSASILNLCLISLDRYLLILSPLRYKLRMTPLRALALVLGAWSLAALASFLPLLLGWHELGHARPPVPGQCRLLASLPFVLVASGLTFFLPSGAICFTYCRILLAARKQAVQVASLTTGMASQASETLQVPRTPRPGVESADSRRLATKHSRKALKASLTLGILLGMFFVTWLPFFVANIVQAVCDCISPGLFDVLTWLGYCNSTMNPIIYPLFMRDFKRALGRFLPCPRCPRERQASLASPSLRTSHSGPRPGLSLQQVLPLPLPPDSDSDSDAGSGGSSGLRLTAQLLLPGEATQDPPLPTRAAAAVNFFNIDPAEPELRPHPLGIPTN
T5 sequence (P28223 whole entry): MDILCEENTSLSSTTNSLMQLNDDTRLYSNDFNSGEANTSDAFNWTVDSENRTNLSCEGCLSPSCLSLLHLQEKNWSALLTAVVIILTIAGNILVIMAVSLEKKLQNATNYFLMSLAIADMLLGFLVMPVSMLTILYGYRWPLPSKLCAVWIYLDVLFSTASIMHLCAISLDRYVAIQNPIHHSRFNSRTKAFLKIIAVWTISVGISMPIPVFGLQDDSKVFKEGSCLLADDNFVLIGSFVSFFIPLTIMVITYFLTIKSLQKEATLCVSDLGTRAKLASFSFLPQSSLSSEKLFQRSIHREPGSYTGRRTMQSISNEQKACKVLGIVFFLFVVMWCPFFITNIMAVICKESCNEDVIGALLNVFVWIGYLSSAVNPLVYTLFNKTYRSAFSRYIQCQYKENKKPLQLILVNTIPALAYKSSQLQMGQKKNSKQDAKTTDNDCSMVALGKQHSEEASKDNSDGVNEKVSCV
Muscarinic acetylcholine receptor M5, sequence (P08912 whole entry): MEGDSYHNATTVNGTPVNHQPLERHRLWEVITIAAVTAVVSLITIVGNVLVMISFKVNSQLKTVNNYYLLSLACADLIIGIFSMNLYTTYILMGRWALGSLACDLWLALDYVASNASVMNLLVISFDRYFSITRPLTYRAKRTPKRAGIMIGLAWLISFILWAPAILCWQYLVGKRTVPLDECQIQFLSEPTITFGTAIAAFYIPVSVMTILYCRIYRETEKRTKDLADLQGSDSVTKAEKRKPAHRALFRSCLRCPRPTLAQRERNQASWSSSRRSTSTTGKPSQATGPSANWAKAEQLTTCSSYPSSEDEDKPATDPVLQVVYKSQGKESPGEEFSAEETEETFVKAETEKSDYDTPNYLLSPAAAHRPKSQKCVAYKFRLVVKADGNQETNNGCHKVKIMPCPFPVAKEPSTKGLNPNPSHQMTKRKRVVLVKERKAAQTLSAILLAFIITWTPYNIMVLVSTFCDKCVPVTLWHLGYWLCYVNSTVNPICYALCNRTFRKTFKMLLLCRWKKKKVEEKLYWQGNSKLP
5-hydroxytryptamine receptor 2C, sequence (P28335 whole entry): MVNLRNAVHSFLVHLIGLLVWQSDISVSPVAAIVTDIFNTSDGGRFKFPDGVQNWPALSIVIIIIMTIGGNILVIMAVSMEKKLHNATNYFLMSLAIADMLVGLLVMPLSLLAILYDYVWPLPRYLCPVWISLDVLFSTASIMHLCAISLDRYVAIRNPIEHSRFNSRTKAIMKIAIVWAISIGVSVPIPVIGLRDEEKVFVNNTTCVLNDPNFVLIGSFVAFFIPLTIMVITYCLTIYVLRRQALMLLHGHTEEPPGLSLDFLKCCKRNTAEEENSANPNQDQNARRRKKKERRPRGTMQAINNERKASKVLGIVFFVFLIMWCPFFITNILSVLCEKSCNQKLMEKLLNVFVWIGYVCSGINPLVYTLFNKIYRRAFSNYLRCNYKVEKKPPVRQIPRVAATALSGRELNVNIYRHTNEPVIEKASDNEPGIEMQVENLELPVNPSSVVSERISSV
Muscarinic acetylcholine receptor M5 (Homo sapiens), sequence (P08912 whole entry): as the sequence (P08912 whole entry) above

SMILES: O=S(=O)(NCCCN1CCC(c2noc3cc(F)ccc23)CC1)c1ccc(F)c(Cl)c1
- Kb [1]: 7.4 nM
- inhibition [2]: -8%
- Activity [3]: inactive
- Activity [4]: inactive
- inhibition at 1 µM [5]: 32%
- Kb [6]: 0.8 nM
- Ki [7]: 3.7 nM
- Activity [8]: inactive
- Ki [9]: 0.9 nM
- Ki [10]: 1.6 nM
- Activity [11]: inactive
- Ki [12]: 1.5 nM
- Kb [13]: 7 nM

SMILES: O=S(=O)(NCCCCN1CCC(c2noc3cc(F)ccc23)CC1)c1cc2ccc(Cl)cc2s1
- Kb [1]: 21 nM
- inhibition [2]: 23%
- Activity [3]: inactive
- Activity [4]: inactive
- inhibition at 1 µM [5]: 18%
- Kb [6]: 2.8 nM
- Ki [7]: 1.2 nM
- Activity [8]: inactive
- Ki [9]: 1.3 nM
- Ki [10]: 3.3 nM
- Activity [11]: inactive
- Ki [12]: 0.8 nM
- Kb [13]: 55 nM

SMILES: Cc1c(S(=O)(=O)NCCCCN2CCC(c3noc4cc(F)ccc34)CC2)sc2ccc(F)cc12
- Kb [1]: 14 nM
- inhibition [2]: 22%
- Activity [3]: inactive
- Activity [4]: inactive
- inhibition at 1 µM [5]: 14%
- Kb [6]: 2.2 nM
- Ki [7]: 1.9 nM
- Activity [8]: inactive
- Ki [9]: 0.2 nM
- Ki [10]: 3.4 nM
- Activity [11]: inactive
- Ki [12]: 0.7 nM
- Kb [13]: 5 nM

SMILES: COc1cc(OC)c(C(=O)CCCCN2CCC3(CC2)NC(=O)NC3=O)cc1NS(=O)(=O)c1ccc(C(F)(F)F)cc1 [RS-102,221]
- Ki [14]: 0.6 nM

SMILES: O=S(=O)(NCCCCN1CCC(c2noc3cc(F)ccc23)CC1)c1cc2ccccc2s1
- Kb [1]: 9.9 nM
- Ki [15]: 0.8 nM
- Kb [16]: 1.8 nM
- minimal effective dose [17]: 3 mg/kg
- IC50 [18]: > 1000 nM
- inhibition [2]: 21%
- Ki [19]: > 1000 nM
- Kb [20]: 4.8 nM
- Ki [21]: 1.8 nM
- Activity [3]: inactive
- Ki [22]: 14 nM
- inhibition [23]: < 40%
- Activity [4]: inactive
- Activity [24]: Non-toxic
- Kb [6]: 7.8 nM
- Ki [14]: 540 nM
- Ki [7]: 2 nM
- Ki [25]: > 1000 nM
- Activity [26]: Non-toxic
- Activity [8]: inactive
- inhibition [27]: < 40%
- Ki [28]: > 1000 nM
- Ki [29]: 3.3 nM
- Ki [30]: 4.1 nM
- Ki [31]: > 1000 nM
- inhibition [32]: < 40%
- inhibition [33]: < 40%
- Ki [9]: 1.6 nM
- Ki [34]: 110 nM
- Kb [35]: 16 nM
- Ki [10]: 6.5 nM
- Activity [11]: inactive
- Ki [12]: 0.6 nM
- Ki [36]: 69 nM
- Ki [37]: > 1000 nM
- Ki [38]: 0.5 nM
- Ki [39]: 1.9 nM
- Kb [13]: 8.8 nM
- inhibition (INH) [40]: 20%
- Ki [41]: 1.9 nM
- Ki [42]: 1.1 nM
- minimal effective dose [43]: 10 mg/kg

SMILES: C[N+]1(C)CCC(OC(=O)C(c2ccccc2)c2ccccc2)CC1 [4-DAMP]
- Ki [25]: 0.48 nM

Further lines, with some results ahead:

- Kb [1]: 3.8 nM
- inhibition [2]: 0%
- Activity [3]: inactive
- Activity [4]: inactive
- Kb [6]: 8.8 nM
- Ki [7]: 1.1 nM
- Activity [8]: inactive
- Ki [9]: 1.4 nM
- Ki [10]: 2.4 nM
- Activity [11]: inactive
- Ki [12]: 1.7 nM
- Kb [13]: 14 nM
SMILES: O=S(=O)(NCCCCN1CCC(c2noc3cc(F)ccc23)CC1)c1ccc2ccccc2c1
- inhibition at 1 µM [5]: 30%

- Kb [1]: 17 nM
- inhibition [2]: 0%
- Activity [3]: inactive
- Activity [4]: inactive
- Kb [6]: 3 nM
- Ki [7]: 3 nM
- Activity [8]: inactive
- Ki [9]: 0.8 nM
- Ki [10]: 8.8 nM
- Activity [11]: inactive
- Ki [12]: 0.6 nM
- Kb [13]: 76 nM
SMILES: O=S(=O)(NCCCCN1CCC(c2noc3cc(F)ccc23)CC1)c1cccc2ccccc12
- inhibition at 1 µM [5]: 24%

- Kb [1]: 7.6 nM
- inhibition [2]: -5%
- Activity [3]: inactive
- Activity [4]: inactive
- Kb [6]: 44 nM
- Ki [7]: 0.9 nM
- Activity [8]: inactive
- Ki [9]: 1.8 nM
- Ki [10]: 5 nM
- Activity [11]: inactive
- Ki [12]: 1.5 nM
- Kb [13]: 110 nM
SMILES: O=S(=O)(NCCCCN1CCN(c2nsc3ccccc23)CC1)c1ccc2ccccc2c1
- inhibition at 1 µM [5]: 14%

- Kb [1]: 11 nM
- inhibition [2]: -3%
- Activity [3]: inactive
- Activity [4]: inactive
- Kb [6]: 9.2 nM
- Ki [7]: 15 nM
- Activity [8]: inactive
- Ki [9]: 0.8 nM
- Ki [10]: 6.2 nM
- Activity [11]: inactive
- Ki [12]: 0.7 nM
- Kb [13]: 11 nM
SMILES: O=S(=O)(NCCCCN1CCN(c2noc3ccccc23)CC1)c1ccc2ccccc2c1
- inhibition at 1 µM [5]: 0%
